Test results published in US20230212193A1, “CRYSTALLINE RET INHIBITOR” (Loxo Oncology, Inc., priority 2020, published 2023).
Values after ≈ are worked out from the molar mass of the structure shown.

Key:
Format in all cases: physicochemical
[1] = solubility in organic solvents
[2] = hygroscopicity comparison of polymorphs; settings: anhydrous polymorphs compared
[3] = equilibrium solubility in aqueous media and simulated fluids
Description: Solubility studies were completed on the crystal form of selpercatinib described herein. Aqueous media covering the physiological pH range and three simulated fluids were used in these studies. A sufficient quantity of solid compound to saturate the volume of solvent is weighed into a vessel with approximately 1 mL of the specified solvent. […] After equilibration, samples are transferred to centrifuge filters (Durapore PVDF, 0.22 µm pore size) and centrifuged for 3 min at 10,000 rpm, while maintaining 37° C. A 100 µL aliquot is then withdrawn from each sample and diluted with 900 µL of 50:50 acetonitrile:water. The pH of the filtrate is recorded using calibrated scientific pH equipment. The solution concentration of the compound is determined by HPLC using an Agilent Zorbax Bonus-RP 4.6 × 75 mm, 3.5 µm column under the following conditions:; temperature is 30° C.; injection volume is 4 µL; ultraviolet detection at 238 nm; flow rate is 1.5 mL/min; autosampler temperature is 25° C.; mobile phase A is 0.1% trifluoroacetic acid in water; and mobile phase B is 0.1% trifluoroacetic acid in acetonitrile. The HPLC gradient is as follows: 0 min -95% A, 5% B; 9.5 min - 23% A, 77% B; 12.1 min - 23% A, 77% B; 13 min - 5% A, 95% B; 16 min - 5% A, 95% B; 16.1 min - 95% A, 5% B; 20 min - 95% A, 5% B. The table below (Table 3) details the equilibrium solubility data and equilibrium pH, reported as a mean of duplicate sample preparations. The solid form of the residual solid from the centrifuge sample is verified by XRPD, as noted in Table 5.

[4] = accelerated stability study of Form B (open dish, temperature/humidity; XRPD and HPLC); set-up: key to Crystal Form (XRPD vs unstressed time 0 sample): NC: No Change
Source text: Physical and chemical stability of Form B is an important attribute not only with respect to ensuring dissolution and solubility, but also for API and dosage form drug development and manufacturing operations (drying, storage, shipping transfers, etc.). Not all crystalline forms have the needed stability to enable drug development. A crystal form that is stable with respect to both temperature and humidity is desired. In order to assess the stability of the crystal form of selpercatinib an accelerated stability study iss carried out. Samples of Form B are weighed into 20 mL scintillation vials and placed (open dish) into bell jars with saturated salt solutions in ovens at the specified temperatures and for the specified times in Table 4. The Form B is analyzed before and after the accelerated stability study and is collected on a Bruker D8 Advance XRPD, equipped with a CuKα source (wavelength = 1.54056 Å) and a Linxeye detector, and operating at 40 kV and 40 mA, with a 0.2 mm divergence slit. Each sample is scanned from 4° to 30° 2θ in 0.02° steps at a rate of 0.2 seconds per step. Assay and impurities relative to the starting material are assessed using an Agilent 1260 HPLC System with Diode Array Detector. Samples are prepared at appropriate concentrations in 50/50 0.1%TFA in water/0.1%TFA in ACN and evaluated using the following HPLC conditions: Column Zorbax Bonus-RP, 75 × 4.6 mm i.d., 3.5 micron, mobile phase A is 0.1% TFA in water, mobile phase B is 0.1% TFA in ACN, gradient is 95% A at time 0, 23% A at time 9.5-12.1 minutes, 5% A at time 13-16 minutes, 95% A at time 16.1-20 minutes with a flow rate of 1.5 mL/min, a column temperature of 30° C., UV detection wavelength of 210 nm, and injection volume of 3 µL.

## COc1ccc(CN2C3CC2CN(c2ccc(-c4cc(OCC(C)(C)O)cn5ncc(C#N)c45)cn2)C3)cn1 [Form A, 6-(2-hydroxy-2-methylpropoxy)-4-(6-(6-((6-methoxypyridin-3-yl)methyl)-3,6-diazabicyclo[3.1.1]heptan-3-yl)pyridin-3-yl)pyrazolo[1,5-a]pyridine-3-carbonitrile]
[1]; 25° C.
  solubility in many organic solvents, including MEK, acetone, and many alcohol based solvents: poor
[1]; dichloromethane, dimethylsulfoxide and THF, organic solvent or mixture, 25° C., called moderate solubility, read-out: solubility in dichloromethane (DCM), dimethylsulfoxide (DMSO) and THF
  solubility: 3000 to 30000 µg/mL (≈ 5710 to 57100 µM)
[2]
  hygroscopicity: slightly more hygroscopic than Form B

## COc1ccc(CN2C3CC2CN(c2ccc(-c4cc(OCC(C)(C)O)cn5ncc(C#N)c45)cn2)C3)cn1 [Form B, 6-(2-hydroxy-2-methylpropoxy)-4-(6-(6-((6-methoxypyridin-3-yl)methyl)-3,6-diazabicyclo[3.1.1]heptan-3-yl)pyridin-3-yl)pyrazolo[1,5-a]pyridine-3-carbonitrile]
[3]; 0.01N HCl, 37° C., 24-hour equilibration
  Equilibrium pH: 3.634
[3]; 0.01 N NaOH, 37° C., 24-hour equilibration
  Equilibrium pH: 9.985
[3]; 0.1N HCl, 21.5° C. (ambient)
  Equilibrium pH: 1.297
[3]; FaSSIF, 37° C., 24-hour equilibration
  Equilibrium pH: 6.445
[3]; FeSSIF, 37° C., 24-hour equilibration
  Equilibrium pH: 4.928
[3]; SGF (simulated gastric fluid), 37° C., 24-hour equilibration
  Equilibrium pH: 2.644
[3]; Water, 37° C., 24-hour equilibration
  Equilibrium pH: 7.146
[3]; aqueous buffer, thermodynamic from solid, 0.01 N NaOH, 37° C., 24-hour equilibration
  solubility at 24 h: 1.1 µg/mL (≈ 2.09 µM)
[3]; aqueous media, 37 °C, thermodynamic from solid, indicated by the aqueous solubility results, read-out: intrinsic solubility
  solubility: ~1 µg/mL (≈ 1.9 µM)
[3]; citrate/phosphate buffer pH 4.0, aqueous buffer, thermodynamic from solid, pH 4.0 Citrate/Phosphate, 37° C., 24-hour equilibration
  solubility at 24 h: 712 µg/mL (≈ 1350 µM)
[3]; pH 1.297, simulated gastric fluid, thermodynamic from solid, 0.1N HCl, measured at 21.5° C. (ambient), 24-hour equilibration
  solubility at 24 h: ≥ 10000 µg/mL
[3]; pH 2.644, thermodynamic from solid, SGF (simulated gastric fluid), 37° C., 24-hour equilibration, retained solids non-crystalline by XRPD
  solubility at 24 h: 1440 µg/mL (≈ 2740 µM)
[3]; pH 3.634, simulated gastric fluid, thermodynamic from solid, 0.01N HCl, 37° C., 24-hour equilibration
  solubility at 24 h: 4770 µg/mL (≈ 9080 µM)
[3]; pH 4.0 Citrate/Phosphate, 37° C., 24-hour equilibration
  Equilibrium pH: 4.134
[3]; pH 4.5 Acetate (USP), 37° C., 24-hour equilibration
  Equilibrium pH: 4.496
[3]; pH 4.5 acetate buffer (USP), aqueous buffer, thermodynamic from solid, pH 4.5 Acetate (USP), 37° C., 24-hour equilibration
  solubility at 24 h: 169 µg/mL (≈ 322 µM)
[3]; pH 6.0 Phosphate (USP), 37° C., 24-hour equilibration
  Equilibrium pH: 6.027
[3]; pH 6.0 phosphate buffer (USP), aqueous buffer, thermodynamic from solid, pH 6.0 Phosphate (USP), 37° C., 24-hour equilibration
  solubility at 24 h: 8.6 µg/mL (≈ 16.4 µM)
[3]; pH 7.146, thermodynamic from solid, Water, 37° C., 24-hour equilibration
  solubility at 24 h: 3.6 µg/mL (≈ 6.85 µM)
[3]; pH 7.5 Phosphate (USP), 37° C., 24-hour equilibration
  Equilibrium pH: 7.526
[3]; pH 7.5 phosphate buffer (USP), aqueous buffer, thermodynamic from solid, pH 7.5 Phosphate (USP), 37° C., 24-hour equilibration
  solubility at 24 h: 2.2 µg/mL (≈ 4.19 µM)
[3]; thermodynamic from solid, FaSSIF (fasted-state simulated intestinal fluid, pH 6.5), 37° C., 24-hour equilibration
  solubility at 24 h: 9.6 µg/mL (≈ 18.3 µM)
[3]; thermodynamic from solid, FeSSIF (fed-state simulated intestinal fluid, pH 5.0), 37° C., 24-hour equilibration
  solubility at 24 h: 228 µg/mL (≈ 433 µM)
[4]; 7 days, 40 °C, 11% RH
  Assay (%) in comparison to the unstressed (time 0) sample: 99.2%
  Crystal Form (XRPD vs unstressed time 0 sample): NC
  Impurities (%): 0.10%
[4]; 7 days, 40 °C, 75% RH
  Assay (%) in comparison to the unstressed (time 0) sample: 99.4%
  Crystal Form (XRPD vs unstressed time 0 sample): NC
  Impurities (%): 0.11%
[4]; 7 days, 50 °C, 30% RH
  Assay (%) in comparison to the unstressed (time 0) sample: 99.4%
  Crystal Form (XRPD vs unstressed time 0 sample): NC
  Impurities (%): 0.09%
[4]; 7 days, 50 °C, 50% RH
  Assay (%) in comparison to the unstressed (time 0) sample: 99.2%
  Crystal Form (XRPD vs unstressed time 0 sample): NC
  Impurities (%): 0.10%
[4]; 7 days, 70 °C, 11% RH
  Assay (%) in comparison to the unstressed (time 0) sample: 100.7%
  Crystal Form (XRPD vs unstressed time 0 sample): NC
  Impurities (%): 0.09%
[4]; 7 days, 70 °C, 75% RH
  Assay (%) in comparison to the unstressed (time 0) sample: 100.3%
  Crystal Form (XRPD vs unstressed time 0 sample): NC
  Impurities (%): 0.10%
[4]; 14 days, 40 °C, 11% RH
  Assay (%) in comparison to the unstressed (time 0) sample: 99.9%
  Crystal Form (XRPD vs unstressed time 0 sample): NC
  Impurities (%): 0.09%
[4]; 14 days, 40 °C, 75% RH
  Assay (%) in comparison to the unstressed (time 0) sample: 99.9%
  Crystal Form (XRPD vs unstressed time 0 sample): NC
  Impurities (%): 0.10%
[4]; 14 days, 50 °C, 30% RH
  Assay (%) in comparison to the unstressed (time 0) sample: 100.5%
  Crystal Form (XRPD vs unstressed time 0 sample): NC
  Impurities (%): 0.09%
[4]; 14 days, 50 °C, 50% RH
  Assay (%) in comparison to the unstressed (time 0) sample: 100.4%
  Crystal Form (XRPD vs unstressed time 0 sample): NC
  Impurities (%): 0.11%
[4]; 14 days, 70 °C, 11% RH
  Assay (%) in comparison to the unstressed (time 0) sample: 99.3%
  Crystal Form (XRPD vs unstressed time 0 sample): NC
  Impurities (%): 0.10%
[4]; 14 days, 70 °C, 75% RH
  Assay (%) in comparison to the unstressed (time 0) sample: 100.9%
  Crystal Form (XRPD vs unstressed time 0 sample): NC
  Impurities (%): 0.11%
[4]; accelerated stability study, conditions of Table 4
  stability under the testing conditions: chemically and physically stable
[4]; time point 0 days, unstressed sample
  Impurities (%): 0.09%
[1]
  solubility in anisole: almost no solubility
